# Target: Melatonin receptor (Homo sapiens, UniProt P48039+P49286)
# Assay: Ability to inhibit 2-[125I]iodomelatonin specific binding to human melatonin receptor type 1A (MT1) expressed in CHO cells.
# Assay type: cell-based
row,Ki [nM],SMILES
1,0.0321,CCCC(=O)NCC[C@@H]1CCc2ccc(OC)cc21
2,1.6,COc1ccc2c(c1)C(CCNC(=O)C(F)(F)F)C(c1ccccc1)C2 (stereo not drawn)
3,10.6,COc1ccc2c(c1)[C@@H](CCNC(C)=O)CC2
4,0.0733,COc1ccc2c(c1)[C@H](CCNC(C)=O)CC2
5,0.0553,CCCC(=O)NCCC1CCc2ccc(OC)cc21 (stereo not drawn)
6,0.00602,COc1ccc2c(c1)C(CCNC(=O)C(F)(F)F)=C(c1ccccc1)C2
7,0.131,COc1ccc2c(c1)C(CCNC(C)=O)CC2 (stereo not drawn)
8,43.7,CCCC(=O)NCC[C@H]1CCc2ccc(OC)cc21

# Reference: ChEMBL document CHEMBL1135781 (J Med Chem, 2002)
